In PMC9455738, “Low-Dose Near-Infrared Light-Activated Mitochondria-Targeting Photosensitizers for PDT Cancer Therapy” (International Journal of Molecular Sciences, 2022):
Like-named read-outs stand apart in the source and are kept apart here.

Legend:
Assay type in all cases: cell-based, human
HeLa cells = test: Resazurin cytotoxicity, dark and after white light projector irradiation (>600 nm), HeLa
Method: (§1) Therefore, the cytotoxicity of the Pc-based compounds was evaluated against different cell lines both under irradiation and in the dark. Compounds LC31, MLC31, and DMLC31Pt, as well as cisplatin were screened against several cancer cell lines representative of human cervical cancer (HeLa), cisplatin-sensitive human ovarian carcinoma (A2780), cisplatin-resistant ovarian endometrioid adenocarcinoma (A2780/CP70), and non-cancerous fibroblast (MRC-5) cell lines. […]
(§2) Human cervical carc in oma cells (HeLa) were cultured in DMEM (Gibco) supplemented with 5% fe t a l calf serum (FCS, Gibco), 100 U/mL penicillin, 100 µg/mL st re pto myc i n . The normal human fe t a l lung fibroblast cell line (MRC‐5) wa s grown in MEM medium (Gibco) supplemented with 10% FCS (Gibco), penicillin (100 U/mL), and st re pto myc i n (100 µg/mL). The human ovarian carc in oma A2780 cell line and a cisplatin‐resistant subline CP70 were cultured in RPMI‐1640 medium (Gibco) supplemented with 10% FCS (Gibco), penicillin (100 U/mL), and st re pto myc in (100 μg/mL). The cells were cultured at 37 °C an d in 5% CO2 humidified at mo sph e re .
(§3) Cy to toxicit y Determination
(§4) The c y totoxic ity of the PSs in the dark and upon light irradiation was evaluated in several cell lines, using a re sa zu r in‐based fluorometric cell viability assay (Sigma‐Aldrich, Darmstadt, Germany). Stock solutions of the Pc agents (5 mM) were prepared in DMF and sto re d in the dark. The sto c k solutions were further diluted with co mp l ete medium to the desired working concentrations. Fo r an exp eriment , 100 µL aliquots of cells in growth medium were seeded in 96‐well plates (density of 2.5 × 10^3 cells/well fo r HeLa, 4 × 10^3 cells/well fo r A2780, and 1.5 × 10^3 cells/well fo r MRC‐5 cells) and incubated at 37 °C, 5% CO2 and 100% humidity. […] At the end of the incubation period, fluorescence of the highly re d fluorescent re so r u f in product (λex = 540 nm, λem = 590 nm) was quantified using a SpectraMax M5 microplate re a d e r (Molecular Device, San Jose, USA). […]

A2780/CP70 cells = test: Resazurin cytotoxicity, dark and after white light projector irradiation (>600 nm), A2780/CP70
Method: as §1, §2, §3, §4

MRC-5 cells = test: Resazurin cytotoxicity, dark and after white light projector irradiation (>600 nm), MRC-5
Method: as §1, §2, §3, §4

A2780 cells = test: Resazurin cytotoxicity, dark and after white light projector irradiation (>600 nm), A2780
Method: as §1, §2, §3, §4

N.N.[Cl][Pt][Cl] [cisplatin, Cis-[PtCl2(NH3)2]]
p.i. HeLa (phototoxicity index, IC50 dark / IC50 light) (HeLa cells; 6.96 J cm^−2): 0.76 | IC50 (HeLa cells; 4 h incubation in the dark, further 72 h incubation, read-out: IC50 HeLa Dark): 1.3 µM | IC50 (HeLa cells; 4 h incubation, white light projector cutoff below 600 nm, 5.8 mW cm^−2, 6.96 J cm^−2, further 72 h, read-out: IC50 HeLa Light): 1.7 µM | IC50 (A2780/CP70 cells; A2780/CP70 (cisplatin resistant), 4 h incubation in the dark, read-out: IC50 A2780/CP70 Dark): 102 µM | p.i. A2780/CP70 (A2780/CP70 cells; A2780/CP70, 6.96 J cm^−2): 0.79 | IC50 (A2780/CP70 cells; A2780/CP70, 4 h incubation, white light projector cutoff below 600 nm, 5.8 mW cm^−2, 6.96 J cm^−2, read-out: IC50 A2780/CP70 Light): 129 µM | p.i. MRC-5 (MRC-5 cells; MRC-5, 6.96 J cm^−2): 1.2 | IC50 (MRC-5 cells; MRC-5, 4 h incubation, white light projector cutoff below 600 nm, 5.8 mW cm^−2, 6.96 J cm^−2, read-out: IC50 MRC-5 Light): 4.5 µM | IC50 (MRC-5 cells; MRC-5 non-cancerous fibroblast, 4 h incubation in the dark, read-out: IC50 MRC-5 Dark): 5.4 µM | p.i. A2780 (A2780 cells; 6.96 J cm^−2): 0.7 | IC50 (A2780 cells; 4 h incubation in the dark, further 72 h incubation, read-out: IC50 A2780 Dark): 2.8 µM | IC50 (A2780 cells; 4 h incubation, white light projector cutoff below 600 nm, 5.8 mW cm^−2, 6.96 J cm^−2, read-out: IC50 A2780 Light): 4 µM
